These results are taken from PubChem BioAssay (NCI).

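Following 48 hours of exposure in 96-well plates, responses at five concentrations were used to interpolate endpoints linearly. TGI is the concentration that stops growth completely.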

Some test systems named below: MALME-3M melanoma; HCT-15 colon; CAKI-1 renal; SF-295 CNS; OVCAR-8 ovarian; A549 NSCLC; UACC-62 melanoma; KM12 colon; OVCAR-5 ovarian; DU-145 prostate; NCI/ADR-RES ovarian; UO-31 renal; K-562 leukemia; MOLT-4 leukemia; A498 renal; HOP-92 NSCLC; RXF 393 renal; HT29 colon; T-47D breast.
Holding throughout (assay): NCI-60 cell line screen, 48 h

As for `CC(C)C(=O)/C=C/c1c(Cl)cccc1Cl`, the TGI worked out at 17.9 µM with MALME-3M melanoma; 17.8 µM in the test on HCT-15 colon; 13.8 µM in the test on CAKI-1 renal; 24.3 µM with SF-295 CNS; 13.6 µM in the test with OVCAR-8 ovarian; 21.9 µM with A549 NSCLC. The TGI stood at 19.1 µM in the test with UACC-62 melanoma; 11.9 µM with KM12 colon; 11.3 µM in the test with OVCAR-5 ovarian; 11.8 µM with DU-145 prostate; 9.23 µM in the test with NCI/ADR-RES ovarian; 16 µM in the test with UO-31 renal. Moreover, the TGI is more than 100 µM with K-562 leukemia; more than 100 µM with MOLT-4 leukemia; 35.5 µM with A498 renal; 26.6 µM in the test on HOP-92 NSCLC; 19 µM in the test with RXF 393 renal; 11.2 µM in the test with HT29 colon. In addition, the TGI in the test with T-47D breast came out at 9.31 µM.
Turning to `COc1cc(OC)c(/C=N\Nc2nc3ccccc3c(=O)n2-c2ccccc2)c(OC)c1`, the TGI with MALME-3M melanoma was 79.3 µM; in the test on HCT-15 colon, more than 100 µM; in the test with CAKI-1 renal it was 38.3 µM; in the test with SF-295 CNS, 65.1 µM; with OVCAR-8 ovarian, more than 64 µM; in the test with A549 NSCLC it was more than 78.5 µM. For the same molecule, the TGI in the test with UACC-62 melanoma was 55 µM; in the test with KM12 colon, more than 31.6 µM; in the test with OVCAR-5 ovarian it was more than 100 µM; in the test on DU-145 prostate, more than 94.1 µM; in the test on NCI/ADR-RES ovarian it was 46.9 µM; in the test on UO-31 renal, more than 81.4 µM. In addition, the TGI is more than 100 µM in the test with K-562 leukemia; 77.1 µM in the test on MOLT-4 leukemia; 41.1 µM in the test with A498 renal; 64.3 µM in the test on HOP-92 NSCLC; 55 µM in the test on RXF 393 renal; 54.3 µM in the test on HT29 colon. This molecule showed a TGI with T-47D breast of 64.5 µM.
Regarding `NS(=O)(=O)c1ccc(NC(=O)c2ccc3nc4ccccc4c(Nc4ccc(S(N)(=O)=O)cc4)c3c2)cc1`, the TGI with MALME-3M melanoma, with HCT-15 colon, in the test on CAKI-1 renal, in the test with SF-295 CNS, in the test on OVCAR-8 ovarian and in the test with A549 NSCLC was more than 100 µM each time. Besides, the TGI in the test on UACC-62 melanoma, in the test with KM12 colon, in the test on OVCAR-5 ovarian, in the test on DU-145 prostate, with NCI/ADR-RES ovarian and with UO-31 renal was more than 100 µM in each case. Besides, the TGI in the test on K-562 leukemia, with MOLT-4 leukemia, in the test with A498 renal, in the test with HOP-92 NSCLC, with RXF 393 renal and in the test on HT29 colon was more than 100 µM each time. This molecule showed a TGI in the test on T-47D breast of more than 100 µM.
`CC/C=C\C=C/C(=O)N/C=C/CCC`: the TGI with MALME-3M melanoma, with HCT-15 colon, in the test with CAKI-1 renal, in the test with OVCAR-8 ovarian, in the test on A549 NSCLC and in the test with UACC-62 melanoma was more than 100 µM in each case. The TGI in the test on KM12 colon, with OVCAR-5 ovarian, in the test on DU-145 prostate, with NCI/ADR-RES ovarian, in the test with UO-31 renal and in the test with K-562 leukemia was more than 100 µM in each case. For the same molecule, the TGI in the test on MOLT-4 leukemia was 95.6 µM; in the test with A498 renal, more than 100 µM; in the test with HOP-92 NSCLC, more than 100 µM; in the test on RXF 393 renal, more than 100 µM; in the test on HT29 colon, more than 100 µM; with T-47D breast, more than 100 µM.
With `C=C(C)[C@H]1CC(=O)[C@@]2(C)C[C@H]3O[C@]3(C)CC/C=C(\C)CC[C@H]12`, the TGI in the test with MALME-3M melanoma was more than 100 µM; in the test with HCT-15 colon, more than 100 µM; with CAKI-1 renal, 73 µM; with SF-295 CNS, more than 100 µM; in the test on OVCAR-8 ovarian it was more than 100 µM; in the test with A549 NSCLC it was more than 100 µM. Also, the TGI is 74.1 µM with UACC-62 melanoma; 54.6 µM in the test on KM12 colon; more than 100 µM in the test with OVCAR-5 ovarian; more than 100 µM in the test on DU-145 prostate; more than 100 µM with NCI/ADR-RES ovarian; more than 100 µM in the test on UO-31 renal. Besides, the TGI was 47.2 µM in the test with K-562 leukemia; 60.9 µM with MOLT-4 leukemia; 73.9 µM in the test with A498 renal; more than 100 µM in the test with HOP-92 NSCLC; 74.1 µM in the test with RXF 393 renal; more than 100 µM in the test with HT29 colon. The molecule further returned a TGI in the test with T-47D breast of more than 100 µM.
Regarding `C#CCn1c(=O)ccn(/C(=C/C(=O)OCC)C(=O)OCC)c1=O`, the TGI in the test on MALME-3M melanoma is 5.19 µM; in the test on HCT-15 colon, 7.8 µM; with CAKI-1 renal, 3.05 µM; in the test on SF-295 CNS, more than 60.5 µM; in the test with OVCAR-8 ovarian it was 5.11 µM; in the test on A549 NSCLC, 34.9 µM. In addition, the TGI was 27.8 µM with UACC-62 melanoma; 33.8 µM in the test with KM12 colon; 21.9 µM with OVCAR-5 ovarian; 30.7 µM in the test on DU-145 prostate; 13.8 µM with NCI/ADR-RES ovarian; 25.3 µM in the test on UO-31 renal. Also, the TGI in the test with K-562 leukemia is more than 100 µM; in the test on MOLT-4 leukemia, more than 56.4 µM; in the test on A498 renal, 30.8 µM; in the test on HOP-92 NSCLC, 6.32 µM; in the test on RXF 393 renal, 3.3 µM; with HT29 colon, 5.64 µM. Moreover, the TGI in the test on T-47D breast came to 14.1 µM.
Turning to `Cn1c(=S)[nH]c(N)c(Cc2ccccc2)c1=O`, the TGI with MALME-3M melanoma, with HCT-15 colon, with CAKI-1 renal, in the test on SF-295 CNS, in the test with OVCAR-8 ovarian and in the test with A549 NSCLC was more than 100 µM throughout. Moreover, the TGI with UACC-62 melanoma, with KM12 colon, in the test with OVCAR-5 ovarian, in the test with DU-145 prostate, in the test on NCI/ADR-RES ovarian and in the test on K-562 leukemia was more than 100 µM throughout. For the same molecule, the TGI in the test with MOLT-4 leukemia was more than 100 µM; in the test on A498 renal, more than 100 µM; in the test with HOP-92 NSCLC it was 97.1 µM; in the test on RXF 393 renal, more than 100 µM; in the test with HT29 colon it was more than 100 µM; in the test with T-47D breast it was more than 100 µM.
